Earlier results as cited in US20220175673A1, “SURGICAL DEVICE” (Saint Anthony Biomedical, LLC, priority 2017, published 2022).

System: Bacteroides, Propionibacterium, Clostridium deficile, Selenomonas
Conditions: some strains

In the case of `[H]/N=C(\N/C(=N/[H])NCCCCCCNC(=N)NC(=N)Nc1ccc(Cl)cc1)Nc1ccc(Cl)cc1` [Chlorhexidine, chlorhexidine], the activity is listed as “active against some strains”.
